PubChem BioAssay (NCI)
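1) Cells in 96-well plates. 2) Compound, 48 h, 5 concentrations. 3) Linear interpolation between surrounding doses. 4) Unreached endpoint = highest concentration. At the GI50, growth is halved. The concentration for full growth arrest is given as TGI.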

Assays:
Assay in all cases: inhibition of tumour cell growth, NCI panel, 48 h
[1] = system: SW-620 colon
[2] = system: MDA-MB-435
[3] = system: SK-MEL-5 melanoma
[4] = system: K-562 leukemia
[5] = system: CCRF-CEM leukemia
[6] = system: HT29 colon
[7] = system: UACC-62 melanoma
[8] = system: SK-MEL-2 melanoma
[9] = system: SK-OV-3 ovarian
[10] = system: A498 renal
[11] = system: CAKI-1 renal
[12] = system: HS 578T breast
[13] = system: DU-145 prostate
[14] = system: TK-10 renal
[15] = system: MOLT-4 leukemia
[16] = system: NCI/ADR-RES ovarian
[17] = system: SF-539 CNS
[18] = system: RPMI-8226 leukemia
[19] = system: UO-31 renal
[20] = system: SF-295 CNS
[21] = system: ACHN renal
[22] = system: EKVX NSCLC
[23] = system: MCF7 breast
[24] = system: NCI-H226 lung
[25] = system: SNB-75 CNS
[26] = system: RXF 393 renal
[27] = system: SR leukemia
[28] = system: SNB-19 CNS
[29] = system: MALME-3M melanoma
[30] = system: OVCAR-4 ovarian
[31] = system: UACC-257 melanoma
[32] = system: SN12C renal
[33] = system: HCT-15 colon
[34] = system: A549 NSCLC
[35] = system: MDA-MB-231 breast
[36] = system: OVCAR-8 ovarian
[37] = system: 786-0 renal
[38] = system: OVCAR-5 ovarian
[39] = system: M14 melanoma
[40] = system: HL-60(TB) leukemia
[41] = system: COLO 205 colon
[42] = system: HOP-62 NSCLC
[43] = system: SK-MEL-28 melanoma
[44] = system: NCI-H460 lung
[45] = system: U251 CNS
[46] = system: KM12 colon
[47] = system: T-47D breast
[48] = system: HCT-116 colon
[49] = system: HOP-92 NSCLC
[50] = system: IGROV1 ovarian
[51] = system: SF-268 CNS
[52] = system: HCC-2998 colon
[53] = system: NCI-H23 lung

Q: What does the source list for COc1ccc2c(CCCC(c3ccccc3)c3ccccc3)c3[n+](cc2c1OC)CCc1cc2c(cc1-3)OCO2?
A: GI50 [1]: 0.323 µM; TGI [1]: 1.39 µM; GI50 [2]: 0.293 µM; TGI [2]: 1.15 µM; GI50 [3]: 0.149 µM; TGI [3]: 0.284 µM; GI50 [4]: 0.318 µM; TGI [4]: 1.74 µM; GI50 [5]: 0.453 µM; TGI [5]: 2.56 µM; GI50 [6]: 0.219 µM; TGI [6]: 1.17 µM; GI50 [7]: 0.243 µM; TGI [7]: 1.06 µM; GI50 [8]: 0.271 µM; TGI [8]: 1.11 µM; GI50 [9]: 0.303 µM; TGI [9]: 1.05 µM; GI50 [10]: 0.0969 µM; TGI [10]: 0.996 µM; GI50 [11]: 2.27 µM; TGI [11]: 6.51 µM; GI50 [12]: 0.37 µM; TGI [12]: 2.1 µM; GI50 [13]: 0.47 µM; TGI [13]: 1.72 µM; GI50 [14]: 0.324 µM; TGI [14]: 1.29 µM; GI50 [15]: 0.376 µM; TGI [15]: 2.07 µM; GI50 [16]: 4.83 µM; TGI [16]: 38.9 µM

Q: Which TGI [1] does the source give for CCN(CC)CCOC(NC(C)=O)(c1ccccc1)c1ccccc1 here?
A: > 100 µM

Q: And the TGI [17]?
A: > 100 µM

Q: And the TGI [18]?
A: > 100 µM

Q: What about the TGI [19] of the same compound?
A: > 100 µM

Q: And the TGI [20]?
A: > 100 µM

Q: And the TGI [21]?
A: > 100 µM

Q: What about the TGI [22] of the same compound?
A: > 100 µM

Q: What about the TGI [2] of the same compound?
A: > 100 µM

Q: And the TGI [23]?
A: > 100 µM

Q: What about the TGI [24] of the same compound?
A: > 100 µM

Q: What about the TGI [25] of the same compound?
A: > 100 µM

Q: What about the TGI [26] of the same compound?
A: > 100 µM

Q: What about the TGI [27] of the same compound?
A: > 100 µM

Q: And the TGI [28]?
A: > 100 µM

Q: And the TGI [29]?
A: > 100 µM

Q: What about the TGI [3] of the same compound?
A: > 100 µM

Q: And the TGI [30]?
A: > 100 µM

Q: What about the TGI [31] of the same compound?
A: > 100 µM

Q: And the TGI [32]?
A: > 100 µM

Q: And the TGI [33]?
A: > 100 µM

Q: What about the TGI [34] of the same compound?
A: > 100 µM

Q: What about the TGI [5] of the same compound?
A: > 100 µM

Q: What about the TGI [35] of the same compound?
A: > 100 µM

Q: And the TGI [6]?
A: > 100 µM

Q: What about the TGI [7] of the same compound?
A: > 100 µM

Q: What about the TGI [36] of the same compound?
A: > 100 µM

Q: And the TGI [37]?
A: > 100 µM

Q: What about the TGI [38] of the same compound?
A: > 100 µM

Q: And the TGI [9]?
A: > 100 µM

Q: And the TGI [39]?
A: > 100 µM

Q: What about the TGI [10] of the same compound?
A: > 100 µM

Q: What about the TGI [40] of the same compound?
A: > 100 µM

Q: What about the TGI [12] of the same compound?
A: > 100 µM

Q: And the TGI [13]?
A: > 100 µM

Q: And the TGI [41]?
A: > 100 µM

Q: What about the TGI [14] of the same compound?
A: > 100 µM

Q: And the TGI [42]?
A: > 100 µM

Q: And the TGI [43]?
A: > 100 µM

Q: And the TGI [44]?
A: > 100 µM

Q: And the TGI [45]?
A: > 100 µM

Q: And the TGI [46]?
A: > 100 µM

Q: And the TGI [15]?
A: > 100 µM

Q: And the TGI [47]?
A: > 100 µM

Q: What about the TGI [48] of the same compound?
A: > 100 µM

Q: What about the TGI [16] of the same compound?
A: > 100 µM

Q: What about the TGI [49] of the same compound?
A: > 100 µM

Q: What about the TGI [50] of the same compound?
A: > 100 µM

Q: What about the TGI [51] of the same compound?
A: > 100 µM

Q: What about the TGI [52] of the same compound?
A: > 100 µM

Q: What about the TGI [53] of the same compound?
A: > 100 µM
